Like-named read-outs stand apart in the source and are kept apart here.
Assays:
Format in all cases: in vivo
[1] = system: Haemaphysalis longicornis; assay: Tickcidal effect against Haemaphysalis longicornis (dry film in glass vial); settings: 24 h, read-out: Death rate after one day
Procedure: Acetone solution (30 μl) of 200 ppm of compounds 1 to 9 and 20 ppm of compounds A and B was placed in 4 mL-volume glass vials. The vials were placed on a shaker, and a dry film of the compound was formed on the inner wall of the vials. The vials were dried for 24 hr or longer. Larva ticks of Haemaphysalis longicornis (10 heads) were released in the vials, and the vials were lidded.
(§1) Death rate (%)={number of dead larvae/(number of survived larvae+number of dead larvae)}×100

Ctenocephalides felis = assay: Fleacidal effect against Ctenocephalides felis (treated filter paper); settings: 6.3 ppm acetone solution (200 μL) on filter paper, adults
Procedure: Acetone solution (200 μL) of 6.3 ppm of compound A was dropped on a filter paper having a diameter of 4.0 cm, and the filter paper was air-dried at room temperature to evaporate acetone. The chemical compound-treated filter paper was tightly fitted into a lid (diameter: 3.7 cm) for a 200-mL vial. About 25 adults of Ctenocephalides felis one to 3 days after adult eclosion were released in the 200 mL-volume vial, and the vial was then sealed by the vial lid with the chemical compound-treated filter paper fitted thereinto. The vial was inverted so that Ctenocephalides felis came into contact with the filter paper and, in this state, was left to stand. […] The test was triplicated.
as §1

[2] = Single oral administration acute toxicity against rat; settings: female, Jcl: Wistar, in vivo, 2000 mg/kg, single oral administration
Procedure: (§2) Compound A was suspended at a concentration of 100 mg/mL using 0.5% methylcellulose. The test solution was forcibly orally administered to rats (Jcl: Wistar, female, 8 week olds) with a tube and a disposable syringe. The dose was 2000 mg/kg. […]

[3] = system: rats (Jcl: Wistar, female); assay: as above; settings: single oral dose 2000 mg/kg, 15 days
Procedure: as §2

[4] = system: Haemaphysalis longicornis; assay: Tickcidal effect against Haemaphysalis longicornis on body surface of mouse; settings: larvae
Source text: Skin hair on the back of mice (ICR, male, 5 week olds) was clipped in a diameter of about 2 cm, and a 15-mL polystyrene conical tube cut to have a height of about 1.5 cm was bonded to the body surface of the mice with an instant adhesive.
as §1

Aphis gossypii = assay: Insecticidal effect against Aphis gossypii (cucumber leaf disk); settings: foliar, 72 h, read-out: insecticidal activity (death rate)
Procedure: A leaf disk having a diameter of 2.0 cm was cut out from a cucumber in pot culture, and test solutions adjusted to a 200 ppm concentration (50% aqueous acetone solution; 0.05% Tween 20 added) were applied to the leaf disk. The leaf disk was then air dried, and first instar larvae were released and were then allowed to stand in a humidistat chamber (light period 16 hr—dark period 8 hr) (25° C.). […] The test was duplicated.
as §1

Laodelphax striatellus = assay: Insecticidal effect against Laodelphax striatellus (root absorption, wheat seedlings); settings: 72 h, read-out: insecticidal activity (death rate)
Procedure: A test solution (200 μl) adjusted to a 100 ppm concentration (10% aqueous acetone solution) was applied to the root of wheat seedlings in water culture. After the absorption of the test solution from the root for 3 days, 10 second instar larvae of Laodelphax striatellus were released, and the wheat seedlings were then allowed to stand in a humidistat chamber (light period 16 hr—dark period 8 hr) (25° C.). […] The test was duplicated.
as §1

[5] = system: Frankliniella occidentalis; assay: Insecticidal effect against Frankliniella occidentalis (kidney bean leaf disk); settings: 100 ppm, first instar larvae, six days after release
Procedure: A leaf disk having a diameter of 2.8 cm was cut out from kidney bean in pot culture, and a test solutions adjusted to a 100 ppm concentration (50% aqueous acetone solution; 0.05% Tween 20 added) were applied to the leaf disk. The leaf disk was then air dried, and first instar larvae were released and were then allowed to stand in a humidistat chamber (light period 16 hr—dark period 8 hr) (25° C.). […] The test was duplicated. Death rate (%)={number of dead larvae/(number of survived larvae+number of dead larvae)}×100

[6] = 200 ppm acetone solution (30 μl), dry film, larva ticks, 25 C
[7] = 200 ppm, first instar larvae, three days after release
[8] = 100 ppm (200 μl) to root, second instar larvae, three days after release

Structure (SMILES) | pest or weed control at 200 µg/mL [1, 6] | pest or weed control at 200 ppm (Aphis gossypii; [7]) | pest or weed control at 100 ppm (Laodelphax striatellus; [8]) | pest or weed control at 200 µg/mL [1] | pest or weed control at 200 ppm (Aphis gossypii) | pest or weed control at 100 ppm (Laodelphax striatellus) | other results
C[C@H]1CC(=O)N2C[C@]34C[C@]5(CC(=O)N(C)C5=O)C(C)(C)[C@@H]3C[C@]12C(=O)N4C [Compound A, 16-keto aspergillimide] | – | – | – | – | – | – | pest or weed control at 20 µg/mL [1]: 100%; Death rate after three days (Ctenocephalides felis): 73%; LD50 at 15 days [2]: ≥ 2000 mg/kg; Cumulative number of dead rats 15 days after administration (number of death/total number of rats tested) [3]: 0/3; Death rate after three days ([4]; dose 2 μg/2 cm^2 on mouse body surface): 60%; Death rate after three days ([4]; dose 6 μg/2 cm^2 on mouse body surface): 93%; Death rate after three days ([4]; dose 10 μg/2 cm^2 on mouse body surface): 100%
CC(=O)O[C@@H]1C[C@]2(C[C@@]34CN5C(=O)C[C@H](C)[C@]5(C[C@@H]3C2(C)C)C(=O)N4C)C(=O)N1C [Compound 2] | 100% | ≥ 80% | 100% | – | – | – | –
C[C@H]1CC(=O)N2C[C@]34C[C@]5(C[C@@H](O)N(C)C5=O)C(C)(C)[C@H]3C[C@]12C(=O)N4C [Compound 1] | – | – | – | 80% | ≥ 80% | 100% | –
C[C@H]1CC(=O)N2C[C@]34C[C@@]5(C(=O)N(C)C(=O)C5O)C(C)(C)[C@@H]3C[C@]12C(=O)N4C (some centres unmarked) [Compound 7] | 100% | ≥ 80% | 100% | – | – | – | –
C[C@H]1CC(=O)N2C[C@]34C[C@]5(C=CN(C)C5=O)C(C)(C)[C@@H]3C[C@]12C(=O)N4C [Compound 3] | – | – | – | 80% | ≥ 80% | 100% | –
C[C@H]1CC(=O)N2C[C@]34C[C@]5(CCN(C)C5=O)C(C)(C)[C@@H]3C[C@]12C(=O)N4C [Compound 4] | – | – | – | 100% | ≥ 80% | 100% | –
C[C@H]1CCN2C[C@]34C[C@]5(CC(=O)N(C)C5=O)C(C)(C)[C@@H]3C[C@]12C(=O)N4C [Compound B, asperparaline A] | – | – | – | – | – | – | pest or weed control at 20 µg/mL ([1]; 20 ppm acetone solution (30 μl), dry film, larva ticks, 25 C): 100%
C[C@H]1CC(=O)N2C[C@@]34C[C@@]5(C(=O)N(C)C=C5C5C[C@]6(C[C@]78CN9C(=O)C[C@H](C)[C@@]9(C[C@H]7C6(C)C)C(=O)N8C)C(=O)N5C)C(C)(C)[C@@H]3C[C@]12C(=O)N4C (some centres unmarked) [Compound 5] | – | – | – | – | ≥ 80% | – | –
C[C@H]1CC(=O)N2C[C@]34C[C@@]5(C(=O)N(C)C(=O)C5Cc5ccccc5)C(C)(C)[C@@H]3C[C@]12C(=O)N4C (some centres unmarked) [Compound 10] | – | ≥ 80% | – | – | – | – | –
COC1C[C@]2(C[C@@]34CN5C(=O)C[C@H](C)[C@]5(C[C@@H]3C2(C)C)C(=O)N4C)C(=O)N1C (some centres unmarked) [Compound 8] | 100% | ≥ 80% | 100% | – | – | – | insecticidal activity (death rate) [5]: not less than 80%
C[C@H]1CC(=O)N2C[C@]34C[C@@]5(C(=O)N(C)C6OC65)C(C)(C)[C@@H]3C[C@]12C(=O)N4C (some centres unmarked) [Compound 6] | – | – | – | 100% | ≥ 80% | 100% | –
C[C@H]1CC(=O)N2C[C@]34C[C@]5(CC(OCc6ccccc6)N(C)C5=O)C(C)(C)[C@@H]3C[C@]12C(=O)N4C (some centres unmarked) [Compound 9] | 100% | ≥ 80% | 100% | – | – | – | –

— US20110263608A1, “16-KETO ASPERGILLIMIDES AND HARMFUL ORGANISM CONTROL AGENT COMPRISING THE SAME AS ACTIVE INGREDIENT” (Meiji Seika Pharma Co., Ltd., priority 2008, published 2011)
